Data set [1] relates to human breast, ovarian and liver cancer. Particulars: humans; cited from earlier work.
For data set [2] the following is noted: particularly in relation to the liver and kidneys; cited from earlier work.
Data set [3] has as its system L1210 cell line. Briefly: Inhibition of growth of the leukaemia cell line L1210 in cell culture. In kind it is cell-based. Particulars: Mus musculus. The source says:
The test may be similar to that described in UK Patent Specification No. 2065653B; and […]

Data set [4] can be described thus: In vivo stability to cleavage of the central amide linkage of the dipeptide (i.p., mice). Set-up: species or system mouse (male C57/DBA2 F1 hybrid). Particulars: 100 mg/kg i.p., 1 hour; for Stability (cleavage of the central amide linkage of the dipeptide): based on dipeptide and cleavage product found in plasma and liver. The protocol: In vivo tests in mice at a dosage of 100 mg/kg with various compounds according to the invention have shown a substantial lack of cleavage of the central amide linkage of the dipeptide as assessed by measurement of the amount of the cleavage product as a percentage of the total of parent compound and cleavage product present in the liver or plasma of a mouse sacrificed 1 hour after intraperitoneal administration of the dipeptide, i.e. cleavage was within the limit of experimental detection which is about 5%. Although a minor degree of cleavage of this amide linkage of the quinazoline is acceptable when it is used in practice, a level of cleavage on administration in vivo of less than 10% is preferred, with no more than about 5% being desirable, especially 2% or 1% or less.
The four compounds were also tested for in vivo stability to cleavage of the central amide linkage of the dipeptide. This test comprised injecting the compound intraperitoneally into male C57/DBA2 (F1 hybrid) mice at a standard dosage rate of 100 mg/kg, sacrificing the animals after 1 hour, removing the plasma, liver and kidneys, homogenising these individually in nine times the volume of 0.1 M Tris HCl at pH 10, precipitating the protein and analysing the product in 0.05 M NaHCO3 by hplc on a Sperisorb C-6 column eluting with acetonitrile/sodium acetate of pH 5.0. UV measurements at 280 and 313 nm were used to detect the dipeptide and the breakdown product of cleavage at the central amide bond of the dipeptide, i.e. the L-glutamic acid derivative or D-glutamic acid derivative. Identification of the parent compound and any breakdown product was effected by Rt comparisons against standard samples of these compounds which have been subjected to the same treatment as the liver, kidney and plasma samples.
The results obtained are shown in the Table, the identification of a compound which is "not cleaved" as compared with a compound which is "cleaved" being made on the basis of the amount of the dipeptide and its cleavage product found in the plasma and the liver.

Data set [5] relates to MCF-7 cell line. As to the kind of experiment: Inhibition of growth of the human breast cancer cell line MCF-7 in cell culture. The settings on record: MCF7, MCF-7 cell culture, read-out: IC50 against the MCF-7 cell line. In kind it is cell-based. An excerpt: The test may be similar to that described by Lippman et al (Cancer Res., 1976, 36, 4595).

pIC50: −log10 of the molar value.

For the molecule `C#CCN(Cc1ccc2nc(N)[nH]c(=O)c2c1)c1ccc(C(=O)N[C@@H](CCC(=O)O)C(=O)O)cc1` [CB3717], the “activity against human breast, ovarian and liver cancer” value in data set [1] is “promising activity against human breast, ovarian and liver cancer”. In addition, the toxicity in humans result in data set [2] was “shows symptoms of toxicity in humans, particularly in relation to the liver and kidneys”.
By pIC50 is commonly meant the negative decadic logarithm of the IC50, by convention in mol/L. Consider `C#CCN(Cc1ccc2nc(C)[nH]c(=O)c2c1)c1ccc(C(=O)N[C@H](CCC(=O)N[C@@H](CCC(=O)O)C(=O)O)C(=O)O)cc1` [D-glu-L-glu], for which, in data set [3], the negative logarithm of the IC50 (pIC50) is 5.47. Besides, the “Stability (cleavage of the central amide linkage of the dipeptide)” value (shortened to “Stability”) in data set [4] is reported as “cleaved”.
`C#CCN(Cc1ccc2nc(C)nc(O)c2c1)c1ccc(C(=O)N[C@@H](CCC(=O)N[C@H](CCC(=O)O)C(=O)O)C(=O)O)cc1` [Example 1, N-p-[N-(3,4-Dihydro-2-methyl-4-oxoquinazolin-6-ylmethyl)-N-(prop-2-ynyl)amino]benzoyl-L-γ-glutamyl-D-glutamic acid] had a pIC50 in data set [3] of 6.74. Further, in data set [5], the pIC50 is 6.52. For the same molecule, in data set [4], the “location of the remaining part of the parent dipeptide which was detected” value was “found mostly in the plasma”, the “Stability” value was “not cleaved” and the “cleavage product accompanying the parent dipeptide in the plasma” value is recorded as “no cleavage product”. In addition, in data set [4] (liver, typical experiment), the “cleavage product in the liver, as a percentage of the total drug administered” value is “no cleavage product” and the “parent dipeptide present in the liver, as a percentage of the total drug administered” value stood at 27±2%.
`C#CCN(Cc1ccc2nc(C)nc(O)c2c1)c1ccc(C(=O)N[C@H](CCC(=O)N[C@H](CCC(=O)O)C(=O)O)C(=O)O)cc1` [Example 10, N-p-[N-(3,4-dihydro-2-methyl-4-oxoquinazolin-6-ylmethyl)-N-(prop-2-ynyl)amino]benzoyl-D-γ-glutamyl-D-glutamic acid]: in data set [3], the pIC50 is 5.89. Moreover, the “Stability” value in data set [4] was “not cleaved”.
The molecule `C#CCN(Cc1ccc2nc(C)nc(O)c2c1)c1ccc(C(=O)N[C@@H](CCC(=O)N[C@@H](CCC(=O)O)C(=O)O)C(=O)O)cc1` [L-glu-L-glu] gave a pIC50 in data set [3] of 7.00. In data set [4], the “location of the remaining part of the parent dipeptide which was detected” value is on record as “found mostly in the plasma”, the “Stability” value is recorded as “cleaved” and the “cleavage product accompanying the parent dipeptide in the plasma” value is listed as “a significant amount of the cleavage product”. Further, the “parent dipeptide present in the liver, as a percentage of the total drug administered” value in data set [4] (liver, typical experiment) turned out to be 1.6±0.8%.

The values above are taken from patent US5444061A, “Anti-cancer compounds” (British Technology Group Limited, priority 1991, dated 1995).
